Usually melting point stands for the temperature of the solid-liquid transition.

Each structure is given as a SMILES string.

One series concerns HIV-1 BA-L. The series is described as follows: Inhibitory effect on HIV-1 infection to MAGI-CCR5 cell (β-galactosidase blue cell count). Type of series: cell-based. Particulars: 100 μl medium containing 1.6 μM of Test Compound + 100 μl medium containing 300 PFU of HIV-1 BA-L; MAGI-CCR5 cells; 37° C. for 2 days. The procedure:
(5) Inhibitory Effect on HIV-1 Infection to MAGI-CCR5 Cell
The plasmid where β-galactosidase gene was ligated downstream of HIV-1 LTR was introduced into CD4 positive HeLa cell, to which human CCR5 was further introduced to obtain transformant MAGI-CCR5.
By using said transformant MAGI-CCR5, a degree of HIV-1 infection was calculated using β-galactosidase activity (blue color due to decomposition of 5-bromo-4-chloro-3-indolyl-β-D-galactopyranoside) as an index. Specifically, MAGI-CCR5 cells were suspended in DMEM medium containing 10% serum to prepare 5×10^4 cells/ml suspension. To each well of 96 well plate was inoculated 200 μl of the suspension, and the cells were cultivated at 37° C. overnight. The medium was removed by means of suction, and to the residue was added 100 μl of the above medium containing 1.6 μM of Test Compound and 100 μl of the above medium containing 300 PFU of HIV-1 BA-L cells. The cells were cultivated at 37° C. for 2 days. The medium was removed by means of suction. To the residue was added 200 μl of a cell fixative (PBS containing 1% formaldehyde and 0.2% glutaraldehyde), and the mixture was allowed to stand at room temperature for 5 minutes and washed twice with PBS. To the mixture was added 100 μl of staining solution (PBS containing […] and 0.4 mg/ml X-gal), and the mixture was allowed to stand at 37° C. for 50 minutes and washed twice with PBS. The number of blue cells was counted by a microscope and defined as the number of cells infected with HIV-1. According to this method, inhibition rate of HIV-1 infection was determined.

The next series concerns the target T1, human CCR5 (Homo sapiens, UniProt P51681).
T1 construct: expressed in transfected cells
The series is described as follows: Evaluation of test compounds based on CCR5 antagonistic activity: inhibition of [125I]-RANTES binding to CCR5/CHO cells. As to conditions: Test Compound 1 μM, 100 pM [125I]-RANTES, room temperature for 40 minutes, read-out: Inhibitory Rate (%). The procedure:
Cloning of CCR5 gene was carried out by a PCR method from human spleen cDNA. With using 0.5 ng of spleen cDNA (Toyobo, QUICK-Clone cDNA) as template, PCR was performed in DNA Thermal Cycler 480 (Perkin-Elmer) (reaction conditions: 30 cycles of 95° C. for 1 minute, 60° C. for 1 minute, and 75° C. for 5 minutes) by adding each 25 pmol of primers of a primer set, • SEQ ID NO.: 1 described in Test Example (1) of WO 99/32100 [length of sequence: 34; type of sequence: nucleic acid; strandedness: single; topology: straight; kind of sequence: other nucleic acid synthetic DNA, and • SEQ ID NO.: 2 described in Test Example (1) of WO 99/32100 [length of sequence: 34; type of sequence: nucleic acid; strandedness: single; topology: straight; kind of sequence: other nucleic acid synthetic DNA which were designed referring to nucleotide sequence of CCR5 gene reported by Samson et. al. (Biochemistry, 35(11), 3362-3367 (1996)) and by using TaKaRa EX Taq (Takara Shuzo). The resultant PCR product was subjected to agarose gel electrophoresis to collect about 1.0 kb DNA fragment, which was subjected to Original TA Cloning Kit (Funakoshi) to carry out cloning of CCR5 gene. (2) Preparation of Plasmid for Expression of Human CCR5
The plasmid obtained in the above (1) was digested with restriction enzymes XbaI (Takara Shuzo) and BamHI (Takara Shuzo) and subjected to agarose gel electrophoresis to collect about 1.0 kb DNA fragment.
The DNA fragment was mixed with plasmid pcDNA3.1 (Funakoshi) for expression in animal cells, said plasmid being digested with XbaI and BamHI, and they were ligated with DNA Ligation Kit Ver.2 (Takara Shuzo). The resulting plasmid was subjected to transformation of competent cell of E. coli JM109 (Takara Shuzo) to obtain plasmid pCKR5.
CHO-K1 cells were grown in 750 ml of tissue culture flask (Becton Dickinson) using Ham's F12 medium (Nihon Pharmaceutical) containing 10% fetal calf serum (Life Tech Oriental) and taken off with 0.5 g/L trypsin-0.2 g/L EDTA (Life Tech Oriental). The cells were washed with PBS (Life Tech Oriental), centrifuged (1000 rpm, 5 minutes), and suspended in PBS. With using Gene Pulser (Bio-Rad Laboratories), DNA was introduced into the cells under the conditions shown below. That is, to the cuvette of 0.4 cm gap were added 8×10^6 cells and 10 μg of plasmid pCKR5 for expression of human CCR5, and electroporation was carried out under 0.25 kV of voltage and 960 μF of capacitance. The cells were transferred into Ham's F12 medium containing 10% fetal calf serum, and cultivated for 24 hours. The cells were again taken off and centrifuged, and suspended in Ham's F12 medium containing 10% fetal calf serum and 500 μg/ml of geneticin (Life Tech Oriental). The suspension was diluted to give 10^4 cells/ml of the suspension, which was inoculated on a 96 well plate (Becton Dickinson) to give geneticin resistant cells.
The resulting geneticin resistant cells were cultivated in 96 well plate (Becton Dickinson), and cells expressing CCR5 were selected from the geneticin resistant cells. That is, in assay buffer (Ham's F12 medium containing 0.5% BSA and 20 mM HEPES (Wako Pure Chemical, pH7.2)) to which was added 200 pM of [^125I]-RANTES (Amersham) as a ligand, a binding reaction was carried out at room temperature for 46 minutes, and the buffer was washed with cooled PBS. To the buffer was added 50 μl/well of 1M NaOH, and the mixture was stirred. Radioactivity was determined with a y-counter to select CCR5/CHO cells which specifically bind to the ligand.
The CCR5/CHO cells were inoculated on 96 well microplate (5×10^4 cells/well) and cultivated for 24 hours. The medium was removed by means of suction, and to each well was added an assay buffer containing Test Compound (1 μM) and then 100 pM of [^125I]-RANTES (Amersham) as a ligand. A binding assay was carried out at room temperature for 40 minutes, and an assay buffer was removed by means of suction. […]

T1 sequence (P51681 whole entry): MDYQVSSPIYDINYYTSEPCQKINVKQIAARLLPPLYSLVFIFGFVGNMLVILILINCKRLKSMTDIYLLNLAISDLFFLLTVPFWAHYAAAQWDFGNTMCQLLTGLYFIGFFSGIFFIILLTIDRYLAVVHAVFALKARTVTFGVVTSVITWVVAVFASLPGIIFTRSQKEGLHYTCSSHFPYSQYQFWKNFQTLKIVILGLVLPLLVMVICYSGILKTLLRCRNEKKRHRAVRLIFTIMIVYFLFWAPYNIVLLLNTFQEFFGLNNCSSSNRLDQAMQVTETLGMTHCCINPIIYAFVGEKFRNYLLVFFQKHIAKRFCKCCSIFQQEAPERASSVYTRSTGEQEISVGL

Turning to `CC(C)OCCOc1ccc(-c2ccc3c(c2)C=C(C(=O)Nc2ccc(CN(C)C4CCOCC4)cc2)CCN3C=O)cc1` [Compound 14, 1-formyl-N-[4-[[N-methyl-N-(tetrahydro-2H-pyran-4-yl)amino]methyl]phenyl]-7-[4-(2-propoxy)ethoxyphenyl]-2,3-dihydro-1H-1-benzazepine-4-carboxamide], the melting point is 187 to 189 °C. Further, in the series on HIV-1 BA-L, the “Inhibitation Rate (%)” value was found to be 91%. In addition, the inhibition at 1 µM at human CCR5 was found to be 96%.

With `CCOCCOc1ccc(-c2ccc3c(c2)C=C(C(=O)Nc2ccc(CN(C)C4CCOCC4)cc2)CCN3CC)cc1` [Compound 16, 7-[4-(2-ethoxyethoxy)phenyl]-1-ethyl-N-[4-[[N-methyl-N-(tetrahydro-2H-pyran-4-yl)amino]methyl]phenyl]-2,3-dihydro-1H-1-benzazepine-4-carboxamide], the melting point is 114.5 to 116.5 °C. In addition, the “Inhibitation Rate (%)” value in the series with HIV-1 BA-L stood at 94%. Besides, the inhibition at 1 µM at human CCR5 was 96%.

Take `CCOc1cc(-c2ccc3c(c2)C=C(C(=O)Nc2ccc(CN(C)C4CCOCC4)cc2)CCN3C=O)ccc1OCCOC(C)C` [Compound 23, 7-[3-ethoxy-4-(2-propoxy)ethoxyphenyl]-1-formyl-N-[4-[[N-methyl-N-(tetrahydro-2H-pyran-4-yl)amino]methyl]phenyl]-2,3-dihydro-1H-1-benzazepine-4-carboxamide]: the melting point is 117 to 119 °C. Further, the inhibition at 1 µM on human CCR5 was determined as 97%.

As to `CCCCOCCOc1ccc(-c2ccc3c(c2)C=C(C(=O)Nc2ccc(CN(C)C4CCOCC4)cc2)CCN3CC2CC2)cc1` [Compound 35, 7-[4-(2-butoxyethoxy)phenyl]-1-cyclopropylmethyl-N-[4-[[N-methyl-N-(tetrahydro-2H-pyran-4-yl)amino]methyl]phenyl]-2,3-dihydro-1H-1-benzazepine-4-carboxamide], the melting point was 92 to 94 °C. For the same compound, at human CCR5, the inhibition at 1 µM was determined as 100%.

As to `CCCCOCCOc1ccc(-c2ccc3c(c2)C=C(C(=O)Nc2ccc(CN(C)C4CCOCC4)cc2)CCN3Cc2nnnn2C)cc1` [Compound 101, 7-[4-(2-butoxyethoxy)phenyl]-N-[4-[N-methyl-N-(tetrahydropyran-4-yl)aminomethyl]phenyl]-1-(1-methyltetrazol-5-ylmethyl)-2,3-dihydro-1-benzazepine-4-carboxamide], the melting point was in the range of 132 to 135 °C. For the same compound, the inhibition at 1 µM at human CCR5 is 100%.

Turning to `CCCCOCCOc1ccc(-c2ccc3c(c2)C=C(C(=O)Nc2ccc(CN(C)C4CCOCC4)cc2)CCN3c2csc(C)n2)cc1` [Compound 45, 7-[4-(2-butoxyethoxy)phenyl]-1-(2-methylthiazol-4-yl)-N-[4-[[N-methyl-N-(tetrahydro-2H-pyran-4-yl)amino]methyl]phenyl]-2,3-dihydro-1H-1-benzazepine-4-carboxamide], the melting point lay in the range of 115 to 123 °C. For the same compound, on human CCR5, the inhibition at 1 µM is 100%.

With `CCOCCOc1ccc(-c2ccc3c(c2)C=C(C(=O)Nc2ccc(CN(C)C4CCOCC4)cc2)CCN3C=O)cc1` [Compound 1, 7-[4-(2-ethoxyethoxy)phenyl]-1-formyl-N-[4-[[N-methyl-N-(tetrahydro-2H-pyran-4-yl)amino]methyl]phenyl]-2,3-dihydro-1H-1-benzazepine-4-carboxamide], the melting point was in the range of 192 to 194 °C. In addition, the “Inhibitation Rate (%)” value in the series on HIV-1 BA-L came to 85%. Also, the inhibition at 1 µM on human CCR5 worked out at 93%.

With `CCCCOCCOc1ccc(-c2ccc3c(c2)C=C(C(=O)Nc2ccc(CN(C)C4CCOCC4)cc2)CCN3Cc2ccsc2)cc1` [Compound 58, 7-(4-butoxyethoxyphenyl)-N-[4-[[N-methyl-N-(tetrahydropyran-4-yl)amino]methyl]phenyl]-1-(3-thienylmethyl)-2,3-dihydro-1-benzazepine-4-carboxamide], the melting point was 122 to 123 °C. For the same compound, the inhibition at 1 µM at human CCR5 is 99%.

As to `CCCOCCOc1ccc(-c2ccc3c(c2)C=C(C(=O)Nc2ccc(CN(C)C4CCOCC4)cc2)CCN3CC)cc1` [Compound 17, 1-ethyl-N-[4-[[N-methyl-N-(tetrahydro-2H-pyran-4-yl)amino]methyl]phenyl]-7-[4-(2-propoxyethoxy)phenyl)-2,3-dihydro-1H-1-benzazepine-4-carboxamide], the melting point lay in the range of 106 to 108 °C. The “Inhibitation Rate (%)” value in the series on HIV-1 BA-L is on record as 94%. Moreover, the inhibition at 1 µM on human CCR5 was found to be 99%.

For the compound `CCCCOCCOc1ccc(-c2ccc3c(c2)C=C(C(=O)Nc2ccc(CN(C)C4CCOCC4)cc2)CCN3CCCOC)cc1` [Compound 104, 7-[4-(2-butoxyethoxy)phenyl]-1-(3-methoxypropyl)-N-[4-[[N-methyl-N-(tetrahydropyran-4-yl)amino]methyl]phenyl]-2,3-dihydro-1H-1-benzazepine-4-carboxamide], the melting point was in the range of 87 to 90 °C. Moreover, the inhibition at 1 µM on human CCR5 was found to be 98%.

In turn, `C=CCN1CCC(C(=O)Nc2ccc(CN(C)C3CCOCC3)cc2)=Cc2cc(-c3ccc(OCCOCCCC)cc3)ccc21` [Compound 50, 1-allyl-7-(4-butoxyethoxyphenyl)-N-[4-[[N-methyl-N-(tetrahydropyran-4-yl)amino]methyl]phenyl]-2,3-dihydro-1-benzazepine-4-carboxamide] came in with a melting point of 103 to 104 °C. Further, the inhibition at 1 µM on human CCR5 was determined as 100%.

Consider `CCOCCCOc1ccc(-c2ccc3c(c2)C=C(C(=O)Nc2ccc(CN(C)C4CCOCC4)cc2)CCN3C=O)cc1` [Compound 2, 7-[4-(3-ethoxypropoxy)phenyl]-1-formyl-N-[4-[[N-methyl-N-(tetrahydro-2H-pyran-4-yl)amino]methyl]phenyl]-2,3-dihydro-1H-1-benzazepine-4-carboxamide], for which the melting point is 166 to 169 °C. The inhibition at 1 µM on human CCR5 turned out to be 96%.

The values are drawn from patent US6936602B1, “Benzazepine derivatives, process for the preparation of the same and uses thereof” (Takeda Chemical Industries, Ltd., priority 1999, dated 2005).
